Assay results reported in PMC12040169 (PLOS Biology, 2025).

Assay: in vitro
Settings: human, hela cells, % viability

Row | Compound | viability at 28.5 h, 10 µM
1 | CNC(=O)C1(Cc2cccc(-c3cccs3)c2)CCN(C(=O)CCc2ccccc2)CC1 [CBK285913] | 90.4%
2 | CC1(CC(=O)Nc2ccccc2)NC(=S)N(c2ccccc2)N1 (stereo not shown) [CBK265534] | 105%
3 | CN1CCOCC(CNC(=O)c2ccc(-c3cnc(N)nc3)cc2)C1 (stereo not shown) [CBK307119] | 100%
4 | Cn1nc(C2CC2)cc1C(=O)NCCCN1CCCc2ccccc21 [CBK282476] | 90.7%
5 | COc1ccccc1CN(C)C(C)C(=O)Nc1sccc1C(N)=O (stereo not shown) [CBK306466] | 109%
6 | O=C(O)c1cccc(NS(=O)(=O)c2cccnc2)c1 [CBK155700] | 101%
7 | O=C(CCN1CCN(CCO)CC1)Nc1ccc2c(c1)CCC2 [CBK264262C] | 93.2%
8 | COc1ccc(CN2CC=C(c3ccc(F)cc3)CC2)cc1OCc1ccccc1 [CBK261853] | 96.1%
9 | Cc1nc2c(c(=O)[nH]1)CN(Cc1ccccc1F)CC2 [CBK283948] | 89.3%
10 | COc1cc(CN2CCC(C(=O)NC(c3ccc(Cl)cc3)c3ccsc3)CC2)cc(OC)c1 (stereo not shown) [CBK147962] | 95.3%
11 | c1cnc(N2CCCC2)c(OC2CCOC2)n1 (stereo not shown) [CBK115891] | 91.2%
12 | Cc1ccc(/C=C/C(=O)O)cc1S(=O)(=O)N(CCO)CCO [CBK264840] | 99%
13 | O=C1CC(C(=O)Nc2ccc(Cl)cc2)c2c(nc(SCc3ccccc3F)[nH]c2=O)N1 (stereo not shown) [CBK294437] | 93.6%
14 | Cc1nn(C)c(Cl)c1S(=O)(=O)Nc1ccc2nsnc2c1 [CBK062222] | 69.6%
15 | COc1cc(CNCC2CCCO2)cc(Cl)c1OCC(N)=O (stereo not shown) [CBK270238C] | 88.4%
16 | CN1CCN(C(=S)SCc2nc(N)nc(Nc3ccc(F)cc3)n2)CC1 [CBK265230] | 81.4%
17 | CCCCN(/C=N/S(=O)(=O)c1ccccc1)CCCC [CBK026576] | 92.2%
18 | Cc1ccccc1C(=O)NCCNC(=O)c1cccnc1 [CBK269222] | 96.2%
19 | COc1ccccc1CC(=O)N1CCN(Cc2ccco2)C[C@@H]1C [CBK285481] | 105%
20 | O=[N+]([O-])c1ccccc1OCCCn1c2ccccc2c2ccccc21 [CBK264799] | 92.1%
21 | c1ccc(N2CCN(Cc3cncn3C3CCCCC3)CC2)nc1 [CBK307345] | 109%
22 | CC(=O)Nc1ccc(NC(=O)Cc2n[nH]c(=S)n2Cc2ccccc2)cc1 [CBK296754] | 91.1%

Row | Compound | viability at 28.5 h, 10 µM
23 | O[C@@H]1C[C@@H](c2nc(-c3ccncc3)no2)N(Cc2ccc(F)cc2)C1 [CBK288838] | 94.3%
24 | Cc1ccc(S(=O)(=O)Oc2ccc(C(c3c(C)n[nH]c3O)c3c(C)n[nH]c3O)cc2)cc1 [CBK265305] | 104%
25 | Cc1csc(Sc2nc3ccccc3nc2N2CCCC2)n1 [CBK093788] | 99.2%
26 | COc1ccc(NS(=O)(=O)c2ccc(NC(=S)NC(=O)C(C)(C)C)cc2)cc1 [CBK268990] | 109%
27 | O=[N+]([O-])c1cccc(CNc2nccnc2-c2ccccc2F)c1 [CBK037416] | 102%
28 | N[C@@H](Cc1c[nH]c2ccccc12)C(=O)N1CC[C@H]2NC(=O)[C@@H](Cc3ccccc3)NC(=O)C3(C/C=C/C[C@@H]2C1)CCOCC3 [CBK292202] | 115%
29 | O=C(c1ccc(Nc2ccnc3cc(C(F)(F)F)ccc23)cc1)N1CCC(O)(c2cccc(C(F)(F)F)c2)CC1 [CBK012467] | 91.6%
30 | O=C(C[C@@H]1CCNC[C@@H]1Cc1cc(CN2CCCCC2)on1)N1CCCCC1 [CBK289153] | 86.8%
31 | O=C(NCc1ccccn1)c1cnn2c(C(F)(F)F)cc(-c3cccs3)nc12 [CBK268195] | 99.9%
32 | CC(C)C(=O)Nc1ccc(Oc2ccc(C(=O)O)c(C(=O)O)c2)cc1 [CBK263463] | 86.4%
33 | COc1cc(NC(=O)N2CCCCC2CO)cc(OC)c1OC (stereo not shown) [CBK155986] | 92%
34 | Cc1cccc(NC(=O)NC(=O)C2CCN(CCOc3ccccc3)CC2)c1 [CBK034868] | 89.9%
35 | CN(C)CCNC(=O)C1CCCN(c2nc3c(-c4ccccc4)csc3c(=O)[nH]2)C1 (stereo not shown) [CBK215501] | 88.3%
36 | O=C(NCCC1SC(NC2CCCCCC2)=NC1=O)Nc1ccc(F)cc1F (stereo not shown) [CBK067469] | 99.7%
37 | O=C(O)CC1C(=O)NCCN1C1Cc2ccccc2C1 (stereo not shown) [CBK270089] | 88.2%
38 | CCC(C)(Sc1nc(C)ccc1C#N)C(=O)O (stereo not shown) [CBK287098] | 88.7%
39 | CCc1c(O)c2ccccc2n(Cc2ccccc2)c1=O [CBK219367] | 90%
40 | COc1ccc(C)cc1S(=O)(=O)Nc1cc(N2CCN(CC3CC3)CC2)c2occc2c1 [CBK073624C] | 94.2%
41 | CC(CCN(CCN)C(=O)N1CCC(CNS(C)(=O)=O)(c2ccccc2)CC1)c1ccccc1 (stereo not shown) [CBK002335C] | 82.9%
42 | Cn1c(=O)n(C)c2cc(CNC(=O)C3NCCc4[nH]cnc43)ccc21 (stereo not shown) [CBK307274] | 89.2%
43 | CC(Cn1cc(Cl)cn1)C(=O)N1CCN(C)CC1c1ccccc1 (stereo not shown) [CBK282016] | 111%
44 | Cc1cc2ncn(CC(=O)N3CCc4ccccc43)c2cc1C [CBK200270] | 114%

Row | Compound | viability at 28.5 h, 10 µM
45 | Cc1ccc2c(c1)OC1(CCN(C(=O)c3cc4c(C)nn(C)c4s3)CC1)CC2=O [CBK166037] | 79.5%
46 | CSCCN1CCCC2(CCN(C(=O)c3ccoc3)C2)C1 (stereo not shown) [CBK132835] | 88.7%
47 | COc1ccc([C@@]23CC[C@@H](NC(=O)c4ccc5occc5c4)C[C@@H]2N(C)CC3)cc1OC [CBK074253T] | 99%
48 | Cn1c(Cc2ccccc2)nnc1SCCC(=O)Nc1ccccc1 [CBK268874] | 91.3%
49 | O=C(NCc1cccnc1)C(=O)Nc1ccc(F)cc1F [CBK269481] | 101%
50 | CCOc1cc(CNCCO)c(Cl)cc1OC [CBK269309C] | 102%
51 | O=C(NCc1cccnc1)N1CCCCC1CO (stereo not shown) [CBK156169] | 105%
52 | CCOc1ncccc1C(=O)Nc1cnc2c(cnn2C(C)C)c1 [CBK306210] | 102%
53 | CC(NC(=O)Cc1c[nH]c(=O)[nH]c1=O)c1cc2cc(Cl)ccc2o1 (stereo not shown) [CBK285673] | 100%
54 | O=C(Nc1cncc(OC2CCNCC2)n1)c1cccnc1 [CBK036375T] | 92.1%
55 | Cc1cccc(C(=O)Oc2ccc(C(c3c(C)n[nH]c3O)c3c(C)n[nH]c3O)cc2)c1 [CBK264804] | 102%
56 | CN(Cc1cccnc1)CC1CCCN(C(=O)Nc2ccc(Cl)cc2)C1 (stereo not shown) [CBK305428] | 83.9%
57 | Cc1nc(C2(O)CCCN(C3CCCC3)CC2)sc1COc1ccc(Cl)cc1 (stereo not shown) [CBK285940] | 122%
58 | Cc1cc(C)nc(NS(=O)(=O)c2ccc(Nc3ncnc(N)c3[N+](=O)[O-])cc2)n1 [CBK267217] | 96.6%
59 | CSc1ncc(C(=O)N2CCN3CCN(C)CC3C2)c(=O)[nH]1 (stereo not shown) [CBK307677] | 104%
60 | COc1ccccc1-c1ccc(NC(=O)c2ccc3c(c2)ncn3C)cc1 [CBK285652] | 103%
61 | O=C(NC(Cc1ccccc1)C(O)c1nccs1)C1CC=CCC1 (stereo not shown) [CBK284763] | 95.3%
62 | Cc1cc(C)n(C(C)C(=O)N(C)CCn2ccnc2C)n1 (stereo not shown) [CBK281759] | 88.1%
63 | COc1ccc(C(C)(C)C)cc1NC(=O)c1ccncc1 [CBK288248] | 92%
64 | COc1ccc(-c2ccc(C(=O)NCCN3CCOCC3)c(N(C)C(C)=O)n2)cc1 [CBK076545] | 102%
65 | CCC1(CC)OC(NC23CC4CC(CC(O)(C4)C2)C3)=NC1=O [CBK107938] | 99.1%
66 | C=CCn1c(Cc2csc(NC(=O)c3ccc([N+](=O)[O-])c(C)c3)n2)n[nH]c1=S [CBK295323] | 87%

Row | Compound | viability at 28.5 h, 10 µM
67 | CCN(CC)C(=O)CN(CCc1ccc(OC)c(OC)c1)C(=O)NCc1c(Cl)cccc1Cl [CBK158743] | 89.9%
68 | Nc1ncc(-c2ccc3c(c2)OCO3)nc1NCc1ccncc1 [CBK063483] | 106%
69 | c1ccc(COCCCN2CCC3(CC2)OCCc2c3[nH]c3ccccc23)cc1 [CBK040208] | 84.8%
70 | O=C(Cn1nnc2ccccc21)N/N=C\c1cccc(Cl)c1Cl [CBK262931] | 92.4%
71 | CC(C)(C)c1ccc(-c2nc(Nc3cccc(C(=O)O)c3)c3ccccc3n2)cc1 [CBK265229C] | 96.6%
72 | NCCCOc1nc2ccccc2nc1N1CCCC1 [CBK115287] | 95.8%
73 | CCN1CCN(S(=O)(=O)c2ccccc2F)CC1 [CBK100558] | 104%
74 | CCOC(=O)C1CCN(C(=O)c2ccc(OC)cc2)CC1 [CBK074220] | 99.2%
75 | C=CCn1c2cc(C)sc2c2cnn(CC(=O)NC3CC3)c(=O)c21 [CBK284149] | 86.1%
76 | CN(CC1(C)COC1)C(=O)C(c1ccc(F)cc1)N(C)C (stereo not shown) [CBK281722] | 107%
77 | O=c1[nH]c2ccccc2n1C1CCN(CCOC(c2ccc(F)cc2)c2ccc(F)cc2)CC1 [CBK099807G] | 101%
78 | Cn1ncnc1CCNS(=O)(=O)c1cccc(C(=O)N2CCCCC2)c1 [CBK306731] | 101%
79 | O=C1O[C@@H](CCl)CN1c1ccc(N2CCOCC2)c(F)c1 [CBK017613] | 105%
80 | COc1ccc(Cn2c(C)nc3ccccc32)cc1 [CBK201156] | 116%
81 | Cc1noc(C)c1C(=O)N1CCN(Cc2ccccc2)CC1 [CBK200173] | 90.9%
82 | Cc1cccc(C)c1OCc1nnc(SCC(=O)c2ccc(F)cc2)n1C [CBK269715] | 91.2%
83 | Cn1cc(C2CCCCCN2C(=O)c2ccccc2F)cn1 (stereo not shown) [CBK285119] | 107%
84 | CCCc1[nH]nc(O)c1Cc1ccccc1C(F)(F)F [CBK075037] | 92.7%
85 | CC1(C)CC(=O)C(C(=S)Nc2ccccc2)=C(NCc2ccccc2)C1 [CBK264498] | 91.6%
86 | Cc1nc2c(c(=O)[nH]1)CCN(C(=O)c1cc(C3CC3)oc1C)C2 [CBK283753] | 92.5%

Same assay, conditions: human, hela cells, % viability, bulk resorufin, single well

Row | Compound | viability at 28.5 h, 10 µM
87 | O=C(O)C1CC1C(=O)N1CCC2(CC1)OCc1cc(-c3ccco3)ccc1O2 (stereo not shown) [CBK060825] | 103%
88 | O=C(N[C@H]1CCN2C(=O)N(CCCl)C(=O)[C@@H]2C1)c1cccs1 [CBK289542] | 90.8%
